Test results: patent US11708373B2, “5-alkylquinazoline derivative, method of preparing the same, and method of using the same” (Hefei University of Technology, priority 2020, dated 2023)

Tested on: breast cancer cells (MCF)
Assay: MCF test of breast cancer cells
Assay type: cell-based
Excerpt: Therefore, the compounds of the present application are expected to be useful in the treatment of various cancers, such as cervical cancer.

COC(=O)C1=NC2(Nc3ccc(C)cc31)C(=O)Nc1ccc(C)cc12 (stereo not shown) [Compound II]
ED50, inhibitory activity in the MCF test of breast cancer cells: < 10.0 µg/mL
